The nature of the series: Solubility in water and solvents. The conditions noted are these: for Solubilités : éthanol: ethanol; for Solubilités : propylène glycol: propylene glycol; for Solubilités : eau: result in words. The class given is physicochemical.

For the molecule `CCOC(=O)c1ccc(-c2ccccc2Cl)cc1` [Exemple 1, chloro-2' biphényl-4 carboxylate d'éthyle], the “Solubilités : diméthyl sulfoxyde (DMSO)” value worked out at 20%, the “Solubilités : éthanol” value was 5% and the “Solubilités : propylène glycol” value is on record as 1%. Further, the “Solubilités : eau” value (water) is recorded as “insoluble”.

On to `O=C(OCc1cccnc1)c1ccc(-c2ccccc2Cl)cc1` [Exemple 10, chloro-2' biphényl-4 carboxylate de pyridyl-3 méthyle, chlorhydrate], for which the “Solubilités : diméthyl sulfoxyde (DMSO)” value worked out at 12% and the “Solubilités : propylène glycol” value is given as 0,1%. Also, under “water”, the “Solubilités : eau” value is given as “insoluble”.

For the molecule `CC1CC(OC(=O)c2ccc(-c3ccccc3Cl)cc2)CC(C)(C)C1` (stereo not drawn) [Exemple 5, chloro-2^1 biphényl-4 carboxylatede triméthyl-3-3-5 clohexyle], the “Solubilités : diméthyl sulfoxyde (DMSO)” value worked out at 20%, the “Solubilités : éthanol” value was determined as 2% and the “Solubilités : propylène glycol” value is given as 0,1%. Further, for the setting “water”, the “Solubilités : eau” value was “insoluble”.

As for `O=C(OCc1ccccc1)c1ccc(-c2ccccc2Cl)cc1` [Exemple 6, chloro-2' biphényl-4 carboxylate de benzyle], the “Solubilités : diméthyl sulfoxyde (DMSO)” value is recorded as 20%, the “Solubilités : éthanol” value is reported as 2% and the “Solubilités : propylène glycol” value was 0,2%. Besides, the “Solubilités : eau” value (water) is recorded as “Insoluble”.

As for `CC(C)OC(=O)c1ccc(-c2ccccc2Cl)cc1` [Exemple 2, chloro-2' biphényl-4 carboxylate d'isopropyle], the “Solubilités : diméthyl sulfoxyde (DMSO)” value is on record as 10%, the “Solubilités : éthanol” value is given as 2% and the “Solubilités : propylène glycol” value worked out at 1%. Further, the “Solubilités : eau” value (water) is reported as “insoluble”.

For the molecule `CCCCCCCCOC(=O)c1ccc(-c2ccccc2Cl)cc1` [Exemple 3, chloro-2' biphényl-4 carboxylate de n-octyle], the “Solubilités : diméthyl sulfoxyde (DMSO)” value turned out to be 20%, the “Solubilités : éthanol” value worked out at 5% and the “Solubilités : propylène glycol” value is recorded as 0,1%. Further, for the setting “water”, the “Solubilités : eau” value is recorded as “insoluble”.

For the molecule `CCCCCCCCCCCCCCCCOC(=O)c1ccc(-c2ccccc2Cl)cc1` [Exemple 4, chloro-2' biphényl-4 carboxylate de n-hexadecyle], the “Solubilités : diméthyl sulfoxyde (DMSO)” value was 0,1%, the “Solubilités : éthanol” value is on record as 0,5% and the “Solubilités : propylène glycol” value is recorded as 0,1%. Besides, the “Solubilités : DMA” value (DMA) is listed as 1%. Further, the “Solubilités : eau” value (water) is listed as “insoluble”.

For `CN(C)CCOC(=O)c1ccc(-c2ccccc2Cl)cc1` [Exemple 9, chloro-2' biphényl-4 carboxylate de diméthylamino-2 éthyle, chlorhydrate], the “Solubilités : diméthyl sulfoxyde (DMSO)” value is 12%. For the same molecule, the solubility (water, read-out: Solubilités : eau) is 100 mg/mL.

The values are drawn from EP0057141A2, “Esters of halogene-biphenylcarboxylates, method of preparation and their application as medicines” (PIERRE FABRE S.A., priority 1981, dated 1982).
